According to article PMC9441481, “Risk assessment and molecular mechanism study of drug-drug interactions between rivaroxaban and tyrosine kinase inhibitors mediated by CYP2J2/3A4 and BCRP/P-gp” (Frontiers in Pharmacology, 2022):
Entries after “also recorded” stand apart in the source; their conditions may differ. Like-named read-outs stand apart in the source and are kept apart here. One block for each molecule: values may come before it.

Columns and labels:
[1] = test system: rivaroxaban metabolism in HLM; test: Inhibition of rivaroxaban metabolism in HLM incubation; assay type: in vitro ADME; details: human, pooled human liver microsomes, probe rivaroxaban (concentration chosen from Km, 22.81 μM for HLM), HLM 0.3 mg/mL, main metabolite formation, five independent experiments, read-out: IC50 of TKI inhibition of rivaroxaban metabolism, HLM
Method: The formation of the main metabolite of rivaroxaban in the CYP inhibition assays was quantitatively determined using HPLC. The mobile phase consisted of 60% methanol (A pump) and 40% pure water with 0.2% formic acid (B pump) with isocratic elution.
The inhibitory effect of the TKIs on the metabolism of rivaroxaban in recombined P450 isoforms and HLM incubations was compared by quantifiably detecting the production of the major metabolite using HPLC. The concentrations of HLM, CYP2J2, and CYP3A4 were 0.3, 0.4, and 0.6 mg mL^−1, respectively. […] Briefly, after 5-min preincubation of potential inhibitors with isoforms, NADPH was added to initiate the reaction. The reaction mixture was incubated at 37°C for 60 min, and ice acetonitrile was used for terminating the reaction. The ratio of major metabolite production of rivaroxaban in the TKI incubation group to that obtained in the control group represents the inhibitory activity.
To explore the inhibitory effects of the three TKIs on rivaroxaban metabolism, three concentrations of TKIs (1, 10, and 100 μM) were used to perform the in vitro enzyme incubations. The ratio of the rivaroxaban main metabolite formation in the incubation with the TKIs to that without inhibitors represented the inhibitory activity.
The IC50 values were obtained by nonlinear fitting of the TKI concentration and the remaining enzyme activity.

P-gp [2] = target: T1, P-gp (Homo sapiens, UniProt P08183); details: MDR1-MDCK cells, TKI 5 μM
Method: Mock-MDCK and MDR1-MDCK cells were seeded in six-well plates and grown to 80% confluency.

P-gp [3] = target: T1, P-gp; test: in vitro
Method: (§1) The LC-MS/MS method was used to quantitatively determine rivaroxaban for cell and animal experiments. LC-MS/MS analysis was performed using an API 3200 triple-quadrupole mass spectrometer (Applied Biosystems, Concord, Ontario, Canada) and an Agilent LC system Agilent HP1200 (Agilent Technology Inc. CA, United States). The column was a Hypersil ODS-BP column (150 mm × 2.1 mm, 5 μm; Dalian Elite Analytical Instruments Co. Ltd. China). […] The flow rate of the mobile phase was 0.4 ml/min. The mobile phase contained acetonitrile and water with 0.2% (v/v) formic acid at 65:35 (v/v) for rivaroxaban in cell experiments. The determination of rivaroxaban in the blood was achieved by gradient elution methods with a mobile phase of acetonitrile (A) and pure water with 10 mM ammonium acetate (B).
(§2) Mock-MDCK, MDR1-MDCK, and ABCG2-MDCK cells were seeded in 24-well transwell inserts (0.33 cm^2, 0.4 μm) at a density of 2.5 × 10^5 cells/ml, and cells were allowed to culture for 3–5 days to form cell monolayers. The Millicell-ERS system was used to measure the TEER (Trans Epithelial Electric Resistance) values of the monolayers. […] Briefly, the monolayer was washed gently using 37°C HBSS (pH 7.4) and preincubated with HBSS for 10 min at 37°C. Then, various concentrations of TKIs were added to the HBSS on either the basolateral (total volume of 800 μl) or apical (total volume of 200 μl) side of the monolayers, and the cells in the transwell inserts were allowed to further incubate at 37°C for 2 h. At last, a 100-μl solution was taken from the other side for quantitative analysis by LC-MS/MS.
(§3) All pharmacokinetic parameters in the present study were analyzed using the Drug and Statistics software (DAS 2.0, Windows). In the bidirectional experiments, the apparent permeability values (Papp), efflux ratio (ER), and net flux ratio were calculated by Eqs. […] The transport of rivaroxaban was assessed to determine apparent Michaelis–Menten constants (Km,app). […] AP is transported from the apical to the basolateral side, and BL is transported from the basolateral to the apical side. Net flux ratiomax is the maximal effect, C is the concentration of rivaroxaban, and h is the Hill coefficient of the sigmoid model.

BCRP = target: T2, BCRP (Homo sapiens, UniProt Q9UNQ0); test: in vitro
T2 sequence (Q9UNQ0 1-655): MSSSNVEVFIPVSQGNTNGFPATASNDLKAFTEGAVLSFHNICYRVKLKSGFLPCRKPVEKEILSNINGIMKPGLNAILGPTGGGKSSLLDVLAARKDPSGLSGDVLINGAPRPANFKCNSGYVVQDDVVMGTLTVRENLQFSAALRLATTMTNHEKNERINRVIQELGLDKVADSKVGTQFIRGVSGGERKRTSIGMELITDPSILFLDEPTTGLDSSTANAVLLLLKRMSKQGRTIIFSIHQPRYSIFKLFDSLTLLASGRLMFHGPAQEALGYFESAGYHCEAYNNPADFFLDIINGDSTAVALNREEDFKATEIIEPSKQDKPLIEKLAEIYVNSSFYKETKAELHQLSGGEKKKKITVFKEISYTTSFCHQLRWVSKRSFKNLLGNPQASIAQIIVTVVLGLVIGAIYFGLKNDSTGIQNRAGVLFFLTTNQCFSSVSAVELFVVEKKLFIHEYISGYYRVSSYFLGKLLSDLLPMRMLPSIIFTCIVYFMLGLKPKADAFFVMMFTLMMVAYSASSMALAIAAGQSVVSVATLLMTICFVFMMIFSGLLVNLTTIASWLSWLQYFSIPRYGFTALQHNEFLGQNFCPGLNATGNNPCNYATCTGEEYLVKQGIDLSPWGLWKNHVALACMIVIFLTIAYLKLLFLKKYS
Method: as §1, §2, §3

[4] = patients with solid tumors; ref Gschwind et al. (2005), Sparano et al. (2009), Di Gion et al. (2011), Scheffler et al. (2011); read-out: I (Cmax of patients with solid tumors); cited from earlier work
recombinant human CYP2J2 = target: T3, recombinant human CYP2J2 (Homo sapiens, UniProt P51589); set-up: method as in Zhao et al., 2022; details: ref Zhao et al., 2022, cited from earlier work
T3 sequence (P51589 1-502): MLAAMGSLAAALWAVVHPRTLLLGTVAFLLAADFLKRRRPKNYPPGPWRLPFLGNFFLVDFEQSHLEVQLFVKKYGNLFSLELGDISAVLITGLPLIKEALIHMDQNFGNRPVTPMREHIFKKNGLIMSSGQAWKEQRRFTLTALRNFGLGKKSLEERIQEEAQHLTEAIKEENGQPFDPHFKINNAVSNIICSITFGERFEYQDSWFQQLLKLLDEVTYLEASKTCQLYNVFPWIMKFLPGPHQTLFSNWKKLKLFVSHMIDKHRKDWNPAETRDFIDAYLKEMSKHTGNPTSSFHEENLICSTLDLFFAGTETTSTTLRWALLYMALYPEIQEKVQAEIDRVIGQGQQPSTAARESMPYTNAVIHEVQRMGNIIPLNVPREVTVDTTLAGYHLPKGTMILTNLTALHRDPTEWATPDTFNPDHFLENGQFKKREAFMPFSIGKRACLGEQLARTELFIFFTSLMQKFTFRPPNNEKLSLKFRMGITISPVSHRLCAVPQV

[5] = test system: pooled human liver microsomes (HLM); set-up: method as in Zhao et al., 2022; details: ref Zhao et al., 2022; read-out: Km of rivaroxaban metabolism, HLM; cited from earlier work
[6] = Rivaroxaban pharmacokinetics in rats, intravenous administration with or without imatinib; assay type: in vivo; details: male, Wistar, rat, plasma, 0.4 mg/kg, i.v.
Method: as §1
(§4) To further investigate the DDI risk between rivaroxaban and the TKIs, the pharmacokinetic parameters were measured in Wistar rats (male, 160–200 g). The experiments were reviewed and approved by the Experimental Animal Centre of Dalian Medical University. […] All rats had free access to food and water and were fed adaptively for 7 days. […] Thirty-six rats were divided into six groups randomly. […] After centrifugation, the plasma proteins were precipitated using acetonitrile, followed by vortexing and centrifugation.
as §3

recombinant human CYP3A4 = recombinant human CYP3A4 (Homo sapiens, UniProt P08684); set-up: method as in Zhao et al., 2022; details: ref Zhao et al., 2022, cited from earlier work
[7] = Rivaroxaban pharmacokinetics in rats, oral administration with or without TKIs; assay type: in vivo, Wistar rats
Method: as §1, §4, §3

[8] = set-up: method as in Mueck et al., 2013; details: ref Mueck et al., 2013; cited from earlier work
[9] = set-up: method as in Zheng et al., 2019; details: ref Zheng et al., 2019; cited from earlier work
CYP2J2 and CYP3A4 = details: predicted increase in rivaroxaban exposure from CYP2J2 and CYP3A4 inhibition
Excerpt: Kinetic constants were included in the mechanistic static model to explore reversible inhibition and the TDI. […] In the present study, this model was designed to explore the contributions of enzyme inhibition in the prediction of DDI risk. The area under the curve ratio (AUC ratio/AUCR) in the presence of a pharmacokinetic DDI was used as the index, as described by Eq. 2.

[10] = set-up: method as in Chong et al., 2020; details: rats; ref Chong et al., 2020; cited from earlier work
[11] = male, Wistar, rat, plasma, po, rivaroxaban 2.1 mg/kg, n = 5

T1 sequence (P08183 whole entry): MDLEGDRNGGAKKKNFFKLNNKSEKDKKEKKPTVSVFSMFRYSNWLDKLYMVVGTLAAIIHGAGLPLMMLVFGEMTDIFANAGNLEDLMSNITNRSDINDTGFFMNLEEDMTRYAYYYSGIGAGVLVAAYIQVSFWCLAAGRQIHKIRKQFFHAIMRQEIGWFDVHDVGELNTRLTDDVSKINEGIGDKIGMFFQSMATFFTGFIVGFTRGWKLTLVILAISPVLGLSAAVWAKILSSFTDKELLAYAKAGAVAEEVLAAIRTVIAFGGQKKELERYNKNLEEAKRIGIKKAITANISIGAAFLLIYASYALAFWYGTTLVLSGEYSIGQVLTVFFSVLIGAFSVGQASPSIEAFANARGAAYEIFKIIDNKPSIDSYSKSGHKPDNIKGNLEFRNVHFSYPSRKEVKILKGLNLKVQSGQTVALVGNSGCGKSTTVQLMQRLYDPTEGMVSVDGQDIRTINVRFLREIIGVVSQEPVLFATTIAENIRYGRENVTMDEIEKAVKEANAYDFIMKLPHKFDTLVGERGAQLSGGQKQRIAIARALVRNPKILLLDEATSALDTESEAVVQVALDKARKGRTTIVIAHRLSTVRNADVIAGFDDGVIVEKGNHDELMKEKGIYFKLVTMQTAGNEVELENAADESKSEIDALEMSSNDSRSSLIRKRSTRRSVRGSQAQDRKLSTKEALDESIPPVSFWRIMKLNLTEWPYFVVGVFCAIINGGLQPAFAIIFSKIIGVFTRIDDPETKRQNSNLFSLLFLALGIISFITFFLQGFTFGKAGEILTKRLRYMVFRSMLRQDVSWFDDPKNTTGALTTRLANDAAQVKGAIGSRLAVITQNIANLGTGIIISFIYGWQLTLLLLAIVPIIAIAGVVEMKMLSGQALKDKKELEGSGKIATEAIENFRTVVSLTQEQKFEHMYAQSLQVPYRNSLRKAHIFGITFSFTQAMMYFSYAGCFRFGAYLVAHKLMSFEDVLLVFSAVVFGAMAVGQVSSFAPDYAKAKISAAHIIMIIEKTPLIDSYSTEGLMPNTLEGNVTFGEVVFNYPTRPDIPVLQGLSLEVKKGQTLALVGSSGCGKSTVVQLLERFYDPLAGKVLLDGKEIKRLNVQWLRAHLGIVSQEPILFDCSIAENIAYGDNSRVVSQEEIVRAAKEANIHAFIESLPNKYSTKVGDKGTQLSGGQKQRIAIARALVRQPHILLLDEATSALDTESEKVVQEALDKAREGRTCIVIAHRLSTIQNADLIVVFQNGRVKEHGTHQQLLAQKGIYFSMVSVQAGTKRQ
Chain of recombinant human CYP3A4 (P08684 whole entry): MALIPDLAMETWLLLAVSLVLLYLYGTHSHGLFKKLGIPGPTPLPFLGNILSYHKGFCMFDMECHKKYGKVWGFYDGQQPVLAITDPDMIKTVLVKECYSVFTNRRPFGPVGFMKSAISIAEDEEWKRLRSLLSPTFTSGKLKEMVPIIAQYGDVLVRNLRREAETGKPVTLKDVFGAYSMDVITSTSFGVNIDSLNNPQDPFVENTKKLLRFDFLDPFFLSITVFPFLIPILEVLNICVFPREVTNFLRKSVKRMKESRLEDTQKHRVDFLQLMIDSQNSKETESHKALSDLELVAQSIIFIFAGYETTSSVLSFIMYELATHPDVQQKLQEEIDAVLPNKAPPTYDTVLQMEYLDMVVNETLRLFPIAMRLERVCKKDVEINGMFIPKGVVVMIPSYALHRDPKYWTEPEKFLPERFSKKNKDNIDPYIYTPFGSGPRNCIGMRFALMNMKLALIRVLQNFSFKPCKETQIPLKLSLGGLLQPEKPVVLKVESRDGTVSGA

SMILES: CCOC(=O)[C@H](CCc1ccccc1)N[C@@H](C)C(=O)N1CCC[C@H]1C(=O)O [enalapril]
increase of the AUC value of rivaroxaban [9]: 20% | increase of the Cmax value of rivaroxaban [9]: 20%

SMILES: CCN(CC)CCNC(=O)c1c(C)[nH]c(/C=C2\C(=O)Nc3ccc(F)cc32)c1C [Sunitinib]
IC50 at 60 min [1]: 84.2 ± 7.34 µM | Cmax [4]: 63 to 69.5 nM | AUC increase (%) (CYP2J2 and CYP3A4): 2% | AUC increase (%) (CYP2J2 and CYP3A4; listed as sunitinib): not to cause a significant change

SMILES: CCCSc1nc(N[C@@H]2C[C@H]2c2ccc(F)c(F)c2)c2nnn([C@@H]3C[C@H](OCCO)[C@@H](O)[C@H]3O)c2n1 [ticagrelor]
increase of the AUC of rivaroxaban [10]: two folds

Continued, in another order:

IC50 at 60 min [1]: 1.7 ± 0.119 µM | intracellular fluorescence intensity of rhodamine 123 (fluorescence imaging) (P-gp [2]): significantly increased | inhibition at 2 h (P-gp [3]; human, pH 7.4): ~20% | inhibition at 2 h, 5 µM (BCRP; human, pH 7.4): > 50%
SMILES: Cc1ccc(NC(=O)c2ccc(CN3CCN(C)CC3)cc2)cc1Nc1nccc(-c2cccnc2)n1 [Imatinib]
Cmax [4]: 4170 to 9280 nM

AUC(0-t) ([6]; n = 5): 4650 ± 446 ng·h/mL | Cmax ([6]; n = 5): 3940 ± 780 ng/mL | clearance ([6]; n = 5, read-out: CL of rivaroxaban (converted)): 1.38 mL/min/kg | half-life ([6]; n = 5, read-out: t1/2 of rivaroxaban (converted)): 2.44 ± 0.757 h | Net flux ratio max, P-gp (P-gp [3]; MDR1-MDCK cells): 10.300 fold | Km at 2 h (P-gp [3]; human, MDCK, pH 7.4): 8.42 µM | net flux ratio, transportation mediated by P-gp (P-gp [3]; substrate identification): more than 2 folds | Net flux ratio max, BCRP (BCRP; ABCG2-MDCK cells): 4.868 fold | Km at 2 h (BCRP; human, pH 7.4): 3.46 µM | net flux ratio, transportation mediated by BCRP (BCRP; substrate identification): more than 2 folds | AUC(0-t) [7, 11]: 1550 ± 268 ng·h/mL | Cmax [7, 11]: 130 ± 22.7 ng/mL | Tmax [7, 11]: 4 h
SMILES: O=C(NC[C@H]1CN(c2ccc(N3CCOCC3=O)cc2)C(=O)O1)c1ccc(Cl)s1 [Rivaroxaban]
fraction of rivaroxaban metabolized by CYP2J2 (recombinant human CYP2J2; input of static model): 0.95 | catalytic efficiency of CYP2J2 relative to CYP3A4 (recombinant human CYP2J2): approximately 39 fold | Km (recombinant human CYP2J2; read-out: Km of rivaroxaban metabolism, CYP2J2): 19.4 µM | Km [5]: 22.8 µM | fraction of rivaroxaban metabolized by CYP3A4 (recombinant human CYP3A4; input of static model): 0.025 | Km (recombinant human CYP3A4; read-out: Km of rivaroxaban metabolism, CYP3A4): 47 µM | dose eliminated via hydrolysis of the amide bonds [8]: approximately 14%

intracellular fluorescence intensity of rhodamine 123 (fluorescence imaging) (P-gp [2]): slight increase | AUC increase (%) (CYP2J2 and CYP3A4): 6–11% | AUC increase (%) (CYP2J2 and CYP3A4; listed as gefitinib): not to cause a significant change
SMILES: COc1cc2ncnc(Nc3ccc(F)c(Cl)c3)c2cc1OCCCN1CCOCC1 [Gefitinib]
effect on rivaroxaban exposure / pharmacokinetics in vivo ([7]; p.o.): almost did not affect; also recorded: did not show obvious changes | Cmax [4]: 190 to 356 nM
